{"source": "patent US20120122212A1", "about": "“TGF-BETA PATHWAY INHIBITORS FOR ENHANCEMENT OF CELLULAR REPROGRAMMING OF HUMAN CELLS” (priority 2009, published 2012)", "key": {"human BJ-5Tα fibroblasts": {"test_system": "human BJ-5Tα fibroblasts", "details": "Day 8", "method": "In the case of compound 616452, cells KSO and KSOM-infected BJ-5Tα fibroblasts were fixed by 4% paraformaldehyde at Day 8, and then incubated with 50 μl 1-Step NBT/BCIP for 20 minutes for AP staining AP staining-positive colonies were counted (see FIGS. 15-16)."}, "human BJ fibroblasts": {"test_system": "human BJ fibroblasts", "details": "BJ fibroblasts (lack TERT), Day 8, reduced sensitivity compared to BJ-5Tα", "from_the_text": "In order to determine the effect of TGFβR inhibitor compounds on reprogramming we combined low multiplicity of infection (MOI) of retroviruses for three induction factor (Klf4, Sox2, and Oct ¾ or “KSO”) and four induction factor (Klf4, Sox2, Oct3/4, c-Myc or “KSOM”) reprogramming with various TGFβR inhibitors in human BJ-5Tα fibroblasts or BJ fibroblasts. […] By utilizing a low MOI infection protocol, we increased the sensitivity of the assay to detect the ability of various TGFβR inhibitor compounds to enhance the efficiency of reprogramming by three or four induction factor combinations.\nAdherent BJ or BJ-5Tα (TERT-immortalized) fibroblast cells were infected “in bulk” with retroviruses for expression of the three induction factors (also referred to as “reprogramming factors”) KLF4, OCT3/4 and SOX2 (“KSO”), or the cells were infected with retroviruses for expression of KLF4, OCT4, SOX2 and c-MYC (“KSOM”), in each case at a multiplicity of infection (MOI) of 1, and transferred into 96-well plates in a serum-free human embryonic stem cell (hES) medium. […] AP activity was determined quantitatively using a chemiluminescent 1,2-dioxetane-phosphate substrate, which upon dephosphorylation by AP forms a metastable phenolate anion intermediate that decomposes emitting light quantified by a microplate luminometer."}, "Sox2": {"test_system": "Sox2", "test": "Sox2 gene expression (Taqman, normalized to GAPDH) in neonatal human dermal fibroblasts", "type": "cell-based", "details": "for increase in Sox2 expression compared to cells that receive no drug treatment: daily feeding", "method": "(§1) Neonatal human dermal fibroblasts (fibroblast cell line NHDF-3955-Neo from Lonza) are cultured under standard cell culture conditions using hFib media (DMEM, 20% Earl's 199 media, 10% FBS, Glutamax, beta-mercaptoethanol (bME)). Approximately 12,000 cells per well are plated on a 12-well plate. 24 hrs after plating, cells are daily fed with media containing 4, 10, 20, 50 or 100 μM GPI-1046 (ACC Corporation) or 1% DMSO. After 6 days, cells are collected and RNA is extracted using a Qiagen RNeasy kit. Gene expression is analyzed using specific Taqman primer-probe sets for Sox2, Oct4, and GAPDH on an ABI 7900HT. Gene expression of cells previously infected with retroviruses encoding Sox2, Oct4, Klf4, and c-Myc (“KSOM”) is also analyzed and is used for positive control purposes. The expression of Sox2 and Oct4 is normalized to the expression of housekeeping gene GAPDH. […] As also indicated in FIG. 1, cells that are treated with 50 μM or 100 μM GPI-1046 express about 5.2-fold and 5.7-fold, respectively, increases in Oct4 when compared to cells that receive no agent treatment and approximately a 3.5- and 3.8-fold increase, respectively, in relative expression of Oct4 when compared to cells that are treated with DMSO.\nNeonatal human dermal fibroblasts (fibroblast cell line NHDF-3955-Neo from Lonza) are cultured under standard cell culture conditions using hFib media (DMEM, 20% Earl's 199 media, 10% FBS, Glutamax, beta-mercaptoethanol (bME)). Approximately 12,000 cells per well are plated on a 12-well plate. 24 hrs after plating, cells are daily fed with media containing 2, 5, 25 or 50 μM 616 453 (Calbiochem) or 1% DMSO. After 6 days, cells are collected and RNA is extracted using a Qiagen RNeasy kit. Gene expression is analyzed using specific Taqman primer-probe sets for Sox2 and GAPDH on an ABI 7900HT. Gene expression of cells previously infected with retroviruses encoding Sox2, Oct4, Klf4, and c-Myc (“KSOM”) is also analyzed and is used for positive control purposes. The expression of Sox2 is normalized to the expression of housekeeping gene GAPDH.\n(§2) Neonatal human dermal fibroblasts (fibroblast cell line NHDF-3955-Neo from Lonza) are cultured under standard cell culture conditions using hFib media (DMEM, 20% Earl's 199 media, 10% FBS, Glutamax, beta-mercaptoethanol (bME)). Approximately 6,000 cells per well are plated on a 24-well plate. 48 hrs after plating, cells are daily fed with media containing 1 or 100 μM GPI-1046 with or without 0.5 μM Decitabine. On day 7 of treatment, cells are collected and RNA is extracted using a Qiagen RNeasy kit. Gene expression is analyzed using specific Taqman primer-probe sets for Sox2, Oct4 and GAPDH on an ABI 7900HT. The expression of Sox2 and Oct4 is normalized to the expression of housekeeping gene GAPDH.\nas §2, with “LY 364947 (Tocris); for 50 μM 616 453 (Calbiochem); 1” for “GPI-1046 with”, “100 μM of A-83-01 (Tocris) or 1 or 100 μM SB 431542 (Tocris). Each treatment was performed in the presence or absence of” for “without”, “using” for “using a”, “Sox2” for “Sox2, Oct4”, “Sox2” for “Sox2 and Oct4”, “GAPDH. […] The morphology of the cells after treatment is depicted in FIG. 5.” for “GAPDH.”\nNeonatal human dermal fibroblasts (fibroblast cell line NHDF-3955-Neo from Lonza) are cultured under standard cell culture conditions using hES medium, as described herein. Cells are treated with 0 μM, 2 μM, 10 μM, 50 μM, or 100 μM GPI-1046. […]"}, "Klf4": {"test_system": "Klf4", "test": "Klf4 gene expression (Taqman, normalized to GAPDH) in neonatal human dermal fibroblasts", "type": "cell-based", "details": "after 6 days", "method": "(§3) Neonatal human dermal fibroblasts (fibroblast cell line NHDF-3955-Neo from Lonza) are cultured under standard cell culture conditions using hFib media (DMEM, 20% Earl's 199 media, 10% FBS, Glutamax, beta-mercaptoethanol (bME)). Approximately 12,000 cells per well are plated on a 12-well plate. 24 hrs after plating, cells are daily fed with media containing 4, 10 or 20 μM DIM (Sigma) or 1% DMSO. After 6 days, cells are collected and RNA is extracted using a Qiagen RNeasy kit. Gene expression is analyzed using specific Taqman primer-probe sets for Klf4, p21 and GAPDH on an ABI 7900HT. Gene expression of cells previously infected with retroviruses encoding Sox2, Oct4, Klf4, and c-Myc (“KSOM”) is also analyzed and is used for positive control purposes. The expression of Klf4 and p21 is normalized to the expression of housekeeping gene GAPDH."}, "p21": {"test_system": "p21", "test": "p21 gene expression (Taqman, normalized to GAPDH) in neonatal human dermal fibroblasts", "type": "cell-based", "details": "after 6 days", "method": "as §3"}, "Oct4": {"test_system": "Oct4", "test": "Oct4 gene expression (Taqman, normalized to GAPDH) in neonatal human dermal fibroblasts", "type": "cell-based", "details": "for increase in Oct4 compared to cells that receive no agent treatment / increase in relative expression of Oct4 compared to cells treated with DMSO: after 6 days, hFib media", "method": "as §1, §2\nNeonatal human dermal fibroblasts (fibroblast cell line NHDF-3955-Neo from Lonza) are cultured under standard cell culture conditions using hES medium, as described herein. Cells are treated with 0 μM, 2 μM, 10 μM, 50 μM, or 100 μM GPI-1046. On day 5 or day 8 after treatment, cells are collected and RNA is extracted using a Qiagen RNeasy kit. Gene expression is analyzed using specific Taqman primer-probe sets for Sox2, Oct4 and GAPDH on an ABI 7900HT. Gene expression of cells previously infected with retroviruses encoding Sox2, Oct4, Klf4, and c-Myc (“KSOM”) is also analyzed and is used for positive control purposes. The expression of Sox2 and Oct4 is normalized to the expression of housekeeping gene GAPDH. […] The morphology of cells infected with viruses encoding KSOM is depicted in FIG. 8."}, "mouse fibroblasts": {"test_system": "mouse fibroblasts", "details": "cited from earlier work"}, "[1]": {"details": "100 μM with 0.5 μM Decitabine, day 7 of treatment"}, "[2]": {"details": "100 μM, no Decitabine, day 7 of treatment"}}, "note": "Read-outs that look alike come from different tables or passages of the source.", "data": [{"molecule": "Cc1cccc(-c2n[nH]cc2-c2ccc3ncccc3n2)n1", "note": "[compound 616452]", "values": [{"measurement": "increase in number of AP positive colonies", "setting": "human BJ-5Tα fibroblasts; KSO-infected BJ-5Tα fibroblasts", "value": "greater than ten fold"}, {"measurement": "increase in number of AP positive colonies", "setting": "human BJ-5Tα fibroblasts; KSOM-infected BJ-5Tα fibroblasts", "value": "approximately five fold"}, {"measurement": "alkaline phosphatase activity", "setting": "human BJ fibroblasts; four factor (KSOM) reprogramming", "value": "increased alkaline phosphatase activity"}, {"measurement": "alkaline phosphatase activity", "setting": "human BJ fibroblasts; three factor (KSO) reprogramming", "value": "increased alkaline phosphatase activity"}]}, {"molecule": "Cc1cccc(-c2nc(C(C)(C)C)[nH]c2-c2ccc3c(c2)OCO3)n1", "note": "[616 453]", "values": [{"measurement": "relative Sox2 expression", "setting": "Sox2; 1 μM, day 7 of treatment", "value": "an increase in relative Sox2 expression"}, {"measurement": "relative Sox2 expression", "setting": "Sox2; 50 μM plus 0.5 μM Decitabine, day 7 of treatment", "value": "an increase in relative Sox2 expression"}, {"measurement": "Sox2 expression compared to cells that receive no treatment", "setting": "Sox2; 2, 5, 25 or 50 μM, after 6 days", "value": "an increase in Sox2 expression"}, {"measurement": "relative Sox2 expression compared to cells treated with DMSO", "setting": "Sox2; 2, 5 and 50 μM, after 6 days", "value": "an increase in relative Sox2 expression"}]}, {"molecule": "c1ccc2c(Cc3c[nH]c4ccccc34)c[nH]c2c1", "note": "[DIM]", "values": [{"measurement": "increase in Klf4 expression relative to cells treated with no agent", "setting": "Klf4; 4 μM", "value": "approximately 2 fold"}, {"measurement": "increase in Klf4 expression compared to cells treated with no agent", "setting": "Klf4; 10 μM", "value": "~3.2", "unit": "fold"}, {"measurement": "increase in p21 expression relative to cells treated with no agent", "setting": "p21; 4 μM", "value": "approximately 2 fold"}, {"measurement": "increase in p21 expression compared to cells treated with no agent", "setting": "p21; 10 μM", "value": "approximately 2 fold"}]}, {"molecule": "Cc1cccc(-c2nn(C(=S)Nc3ccccc3)cc2-c2ccnc3ccccc23)n1", "note": "[A-83-01]", "values": [{"measurement": "relative expression of Sox2 compared to control cells", "setting": "Sox2; 1 or 100 μM, absence of Decitabine, day 7 of treatment", "value": "increased relative expression of Sox2"}, {"measurement": "relative Sox2 expression compared to control cells", "setting": "Sox2; 1 or 100 μM, presence of 0.5 μM Decitabine, day 7 of treatment", "value": "a slight increase of relative Sox2 expression"}]}, {"molecule": "NC(=O)c1ccc(-c2nc(-c3ccc4c(c3)OCO4)c(-c3ccccn3)[nH]2)cc1", "note": "[SB 431542]", "values": [{"measurement": "relative Sox2 expression", "setting": "Sox2; 100 μM plus 0.5 μM Decitabine, day 7 of treatment", "value": "an increase in relative Sox2 expression"}]}, {"molecule": "CCC(C)(C)C(=O)C(=O)N1CCCC1C(=O)OCCCc1cccnc1", "note": "(centres unmarked) [GPI-1046]", "values": [{"measurement": "increase in Oct4 compared to cells that receive no agent treatment", "setting": "Oct4; 50 μM", "value": "about 5.2 fold"}, {"measurement": "increase in relative expression of Oct4 compared to cells treated with DMSO", "setting": "Oct4; 50 μM", "value": "~3.5", "unit": "fold"}, {"measurement": "Oct4 expression compared to control cells", "setting": "Oct4; [1]", "value": "slightly increased expression"}, {"measurement": "relative Oct4 expression compared to cells that do not receive drug treatment", "setting": "Oct4; 100 μM, Day 8, hES medium", "value": "increases in relative Sox2 and Oct4 expression"}, {"measurement": "increase in Oct4 compared to cells that receive no agent treatment", "setting": "Oct4; 100 μM", "value": "~5.7", "unit": "fold"}, {"measurement": "increase in relative expression of Oct4 compared to cells treated with DMSO", "setting": "Oct4; 100 μM", "value": "~3.8", "unit": "fold"}, {"measurement": "increase in Oct4 expression compared to control cells", "setting": "Oct4; [2]", "value": "~4.3", "unit": "fold"}, {"measurement": "levels of Sox2, Oct3/4 or both versus cells treated with no agent", "setting": "Sox2; 4 μM, 10 μM, or 20 μM, after 6 days, hFib media", "value": "higher levels of Sox2, Oct3/4 or both"}, {"measurement": "increase of relative Sox2 expression compared to cells treated with DMSO", "setting": "Sox2; 50 μM or 100 μM, after 6 days, hFib media", "value": "~1.6", "unit": "fold"}, {"measurement": "increase in Sox2 expression compared to cells that receive no drug treatment", "setting": "Sox2; 50 μM, after 6 days, hFib media", "value": 4.4, "unit": "fold"}, {"measurement": "Sox2 expression compared to control cells", "setting": "Sox2; [1]", "value": "slightly increased expression"}, {"measurement": "relative Sox2 expression compared to control cells", "setting": "Sox2; 100 μM, Day 5, hES medium", "value": "an increase in relative Sox2 expression"}, {"measurement": "relative Sox2 expression compared to cells that do not receive drug treatment", "setting": "Sox2; 100 μM, Day 8, hES medium", "value": "increases in relative Sox2 and Oct4 expression"}, {"measurement": "increase in Sox2 expression compared to cells that receive no drug treatment", "setting": "Sox2; 100 μM, after 6 days, hFib media", "value": 4.5, "unit": "fold"}, {"measurement": "increase in Sox2 expression compared to control cells", "setting": "Sox2; [2]", "value": "~3.5", "unit": "fold"}]}, {"molecule": "Wnt3a: Wnt cell signaling molecule (protein, UniProt P56704 19-352, looked up) Protein Wnt-3a: SYPIWWSLAVGPQYSSLGSQPILCASIPGLVPKQLRFCRNYVEIMPSVAEGIKIGIQECQHQFRGRRWNCTTVHDSLAIFGPVLDKATRESAFVHAIASAGVAFAVTRSCAEGTAAICGCSSRHQGSPGKGWKWGGCSEDIEFGGMVSREFADARENRPDARSAMNRHNNEAGRQAIASHMHLKCKCHGLSGSCEVKTCWWSQPDFRAIGDFLKDKYDSASEMVVEKHRESRGWVETLRPRYTYFKVPTERDLVYYEASPNFCEPNPETGSFGTRDRTCNVSSHGIDGCDLLCCGRGHNARAERRREKCRCVFHWCCYVSCQECTRVYDVHTCK", "values": [{"measurement": "enhancement of reprogramming efficiency", "setting": "mouse fibroblasts; mouse fibroblasts in the presence of factors Oct4, Sox2 and Klf4", "value": "about 20 fold"}, {"measurement": "enhancement of reprogramming efficiency", "setting": "mouse fibroblasts; mouse fibroblasts with Oct4, Sox2, Klf4 and c-Myc", "value": 1.2, "unit": "fold"}]}]}
